Measured values from patent US12065436B2, “Cardiac sarcomere inhibitors” (Cytokinetics, Inc., priority 2018, dated 2024).

Target: bovine cardiac myofibrils (full-length cardiac myosin ATPase in the native sarcomere) (Bos taurus (Bovine), UniProt Q9BE39)
Assay: Skinned bovine cardiac myofibril ATPase assay (PK/LDH-coupled)
Format: biochemical
Conditions: Ca2+ activating to 75% of maximal rate; for CDMF75 IC15: concentration giving 15% inhibition; for IC50: read-out: CDMF75 IC50
Method in brief: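 Triton-skinned bovine left-ventricle myofibrils (1 mg/mL) in PM 12 buffer (12 mM PIPES, 2 mM MgCl2, pH 6.8) with 50 μM ATP, 0.6 mM EGTA and CaCl2 set for 50% or 75% activation. Steady-state ATPase inhibition followed by PK/LDH-coupled NADH oxidation at 340 nm.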

Sequence of bovine cardiac myofibrils (full-length cardiac myosin ATPase in the native sarcomere) (Q9BE39 whole entry): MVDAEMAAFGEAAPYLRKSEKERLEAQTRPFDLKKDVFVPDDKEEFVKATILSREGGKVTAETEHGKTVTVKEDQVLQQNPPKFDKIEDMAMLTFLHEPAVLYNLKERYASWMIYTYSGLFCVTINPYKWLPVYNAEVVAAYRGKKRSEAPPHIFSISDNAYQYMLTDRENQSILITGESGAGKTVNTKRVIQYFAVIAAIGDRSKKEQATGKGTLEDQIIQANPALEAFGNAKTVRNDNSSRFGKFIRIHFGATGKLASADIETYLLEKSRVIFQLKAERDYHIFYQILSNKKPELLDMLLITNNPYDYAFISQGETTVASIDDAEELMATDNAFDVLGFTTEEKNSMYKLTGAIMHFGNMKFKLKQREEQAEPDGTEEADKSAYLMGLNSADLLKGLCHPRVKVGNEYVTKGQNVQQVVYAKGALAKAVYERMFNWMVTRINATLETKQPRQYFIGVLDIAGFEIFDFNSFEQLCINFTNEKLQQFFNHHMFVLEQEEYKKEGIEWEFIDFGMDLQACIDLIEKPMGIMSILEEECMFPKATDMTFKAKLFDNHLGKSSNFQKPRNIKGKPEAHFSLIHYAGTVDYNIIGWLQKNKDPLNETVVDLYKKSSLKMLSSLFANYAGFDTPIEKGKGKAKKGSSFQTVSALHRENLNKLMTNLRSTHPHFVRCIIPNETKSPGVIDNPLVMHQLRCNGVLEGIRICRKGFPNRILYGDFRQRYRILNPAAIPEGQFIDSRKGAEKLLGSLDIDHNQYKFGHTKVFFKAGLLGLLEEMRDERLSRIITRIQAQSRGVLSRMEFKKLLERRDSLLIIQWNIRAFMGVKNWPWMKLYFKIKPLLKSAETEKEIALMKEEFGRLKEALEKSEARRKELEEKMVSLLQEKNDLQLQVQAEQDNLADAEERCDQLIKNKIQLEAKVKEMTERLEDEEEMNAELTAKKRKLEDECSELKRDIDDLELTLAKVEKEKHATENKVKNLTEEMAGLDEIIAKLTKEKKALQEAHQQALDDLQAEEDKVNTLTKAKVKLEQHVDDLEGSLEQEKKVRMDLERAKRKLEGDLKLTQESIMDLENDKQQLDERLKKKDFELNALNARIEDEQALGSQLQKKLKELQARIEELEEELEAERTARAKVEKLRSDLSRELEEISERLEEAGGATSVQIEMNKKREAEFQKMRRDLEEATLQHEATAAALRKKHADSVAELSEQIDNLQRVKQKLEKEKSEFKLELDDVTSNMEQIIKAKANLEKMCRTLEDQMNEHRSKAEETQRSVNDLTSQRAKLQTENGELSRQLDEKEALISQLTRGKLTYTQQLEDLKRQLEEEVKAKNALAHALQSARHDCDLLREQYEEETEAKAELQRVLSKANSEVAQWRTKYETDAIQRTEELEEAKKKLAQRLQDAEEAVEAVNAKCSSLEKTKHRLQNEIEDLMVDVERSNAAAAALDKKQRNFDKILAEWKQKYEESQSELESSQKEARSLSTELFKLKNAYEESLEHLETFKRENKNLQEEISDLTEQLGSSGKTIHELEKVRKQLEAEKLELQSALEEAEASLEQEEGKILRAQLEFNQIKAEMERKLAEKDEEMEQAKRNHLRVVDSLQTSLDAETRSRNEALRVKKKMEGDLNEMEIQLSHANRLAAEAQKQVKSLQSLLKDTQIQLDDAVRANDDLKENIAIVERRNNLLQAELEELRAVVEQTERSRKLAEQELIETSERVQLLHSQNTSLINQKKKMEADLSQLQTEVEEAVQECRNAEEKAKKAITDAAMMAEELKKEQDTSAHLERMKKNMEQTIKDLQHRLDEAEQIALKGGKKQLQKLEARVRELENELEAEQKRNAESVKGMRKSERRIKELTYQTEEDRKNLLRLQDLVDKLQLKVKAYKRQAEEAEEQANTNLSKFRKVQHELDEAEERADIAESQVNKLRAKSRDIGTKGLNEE
Sequence of bovine cardiac myofibrils (full-length cardiac myosin ATPase in the native sarcomere) (P85100 whole entry partner): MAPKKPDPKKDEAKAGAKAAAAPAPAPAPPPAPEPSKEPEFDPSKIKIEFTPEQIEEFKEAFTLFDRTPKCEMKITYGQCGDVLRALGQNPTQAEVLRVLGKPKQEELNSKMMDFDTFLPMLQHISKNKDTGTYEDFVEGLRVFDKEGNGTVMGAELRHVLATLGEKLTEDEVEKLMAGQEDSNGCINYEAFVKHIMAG
Sequence of bovine cardiac myofibrils (full-length cardiac myosin ATPase in the native sarcomere) (Q3SZE5 whole entry partner): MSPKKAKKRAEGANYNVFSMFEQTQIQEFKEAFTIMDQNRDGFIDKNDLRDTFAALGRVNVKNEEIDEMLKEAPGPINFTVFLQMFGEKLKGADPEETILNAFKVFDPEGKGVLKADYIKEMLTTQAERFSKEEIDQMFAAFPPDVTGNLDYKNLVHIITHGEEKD

SMILES | CDMF75 IC15 | IC50
COCCn1cc(C(=O)N[C@@H]2CCc3cc(-c4noc(C(F)F)n4)ccc32)cn1 [Compound 529, (R)-N-(5-(5-(difluoromethyl)-1,2,4-oxadiazol-3-yl)-2,3-dihydro-1H-inden-1-yl)-1-(2-methoxyethyl)-1H-pyrazole-4-carboxamide] | 1.8 µM | 6.8 µM
CCc1nc(-c2ccc3c(c2)CC[C@H]3NC(=O)c2cnn(CC(OC)OC)c2)no1 [Compound 530, (R)-1-(2,2-dimethoxyethyl)-N-(5-(5-ethyl-1,2,4-oxadiazol-3-yl)-2,3-dihydro-1H-inden-1-yl)-1H-pyrazole-4-carboxamide] | 2.6 µM | 8.9 µM
CCc1nc(-c2ccc3c(c2)CC[C@H]3NC(=O)c2cnn(C(C)C(=O)O)c2)no1 (stereo partly drawn) [Compound 531, 2-(4-(((R)-5-(5-ethyl-1,2,4-oxadiazol-3-yl)-2,3-dihydro-1H-inden-1-yl)carbamoyl)-1H-pyrazol-1-yl)propanoic acid] | 4.1 µM | 25.1 µM
CCc1nc(-c2ccc3c(c2)CC[C@H]3NC(=O)c2cnn(CC(=O)O)c2)no1 [Compound 532, (R)-2-(4-((5-(5-ethyl-1,2,4-oxadiazol-3-yl)-2,3-dihydro-1H-inden-1-yl)carbamoyl)-1H-pyrazol-1-yl)acetic acid] | 1.1 µM | 5.5 µM
CCc1nc(-c2ccc3c(c2)CC[C@H]3NC(=O)c2cnn(C(C)CO)c2)no1 (stereo partly drawn) [Compound 533, N-((R)-5-(5-ethyl-1,2,4-oxadiazol-3-yl)-2,3-dihydro-1H-inden-1-yl)-1-(1-hydroxypropan-2-yl)-1H-pyrazole-4-carboxamide] | 1.5 µM | 8.7 µM
CCc1nc(-c2ccc3c(c2)OCCC3NC(=O)c2cnn(C)c2)no1 (centres unmarked) [Compound 534, N-(7-(5-ethyl-1,2,4-oxadiazol-3-yl)chroman-4-yl)-1-methyl-1H-pyrazole-4-carboxamide] | 2.2 µM | 13.5 µM
CCc1nc(-c2ccc3c(c2)OCC[C@H]3NC(=O)c2cnn(C)c2)no1 [Compound 535, (R)-N-(7-(5-ethyl-1,2,4-oxadiazol-3-yl)chroman-4-yl)-1-methyl-1H-pyrazole-4-carboxamide] | 1.0 µM | 5.8 µM
CCc1nc(-c2ccc3c(c2)CC[C@H]3NC(=O)c2cnn(C[C@@H](O)CO)c2)no1 [Compound 539, N-[(1R)-5-(5-ethyl(1,2,4-oxadiazol-3-yl))indanyl][1-((2R)-2,3-dihydroxypropyl)pyrazol-4-yl]carboxamide] | 1.3 µM | 6 µM
CC(=O)O[C@@H](C)c1nc(-c2ccc3c(c2)CC[C@H]3NC(=O)c2cnn(C)c2)no1 [Compound 543, 1-(3-{(1R)-1-[(1-methylpyrazol-4-yl)carbonylamino]indan-5-yl}(1,2,4-oxadiazol-5-yl))(1S)ethyl acetate] | 4.6 µM | 17.3 µM
COC(=O)Cc1nc(-c2ccc3c(c2)CC[C@H]3NC(=O)c2cnn(C)c2)no1 [Compound 544, methyl 2-(3-{(1R)-1-[(1-methylpyrazol-4-yl)carbonylamino]indan-5-yl}-1,2,4-oxadiazol-5-yl)acetate] | 34.9 µM | 39.2 µM
CC(=O)c1nc(-c2ccc3c(c2)CC[C@H]3NC(=O)c2cnn(C)c2)no1 [Compound 545, N-[(1R)-5-(5-acetyl(1,2,4-oxadiazol-3-yl))indanyl](1-methylpyrazol-4-yl)carboxamide] | 3.2 µM | 13.1 µM
COCCc1nc(-c2ccc3c(c2)CC[C@H]3NC(=O)c2cnn(C)c2)no1 [Compound 546, N-{(1R)-5-[5-(2-methoxyethyl)(1,2,4-oxadiazol-3-yl)]indanyl}(1-methylpyrazol-4-yl)carboxamide] | 15.5 µM | 39.2 µM
CC(=O)OCCc1nc(-c2ccc3c(c2)CC[C@H]3NC(=O)c2cnn(C)c2)no1 [Compound 548, 2-(3-{(1R)-1-[(1-methylpyrazol-4-yl)carbonylamino]indan-5-yl}-1,2,4-oxadiazol-5-yl)ethyl acetate] | 11.8 µM | 39.2 µM
C[C@@H](O)c1nc(-c2ccc3c(c2)CC[C@H]3NC(=O)c2cnn(C)c2)no1 [Compound 550, N-{(1R)-5-[5-((1R)-1-hydroxyethyl)(1,2,4-oxadiazol-3-yl)]indanyl}(1-methylpyrazol-4-yl)carboxamide] | 13.1 µM | 39.2 µM
COC(C)c1nc(-c2ccc3c(c2)CC[C@H]3NC(=O)c2cnn(C)c2)no1 (stereo partly drawn) [Compound 551, N-((1R)-5-(5-(1-methoxyethyl)-1,2,4-oxadiazol-3-yl)-2,3-dihydro-1H-inden-1-yl)-1-methyl-1H-pyrazole-4-carboxamide] | 3.6 µM | 14.6 µM
Cn1cc(C(=O)N[C@@H]2CCc3cc(-c4noc(CCO)n4)ccc32)cn1 [Compound 552, N-{(1R)-5-[5-(2-hydroxyethyl)(1,2,4-oxadiazol-3-yl)]indanyl}(1-methylpyrazol-4-yl)carboxamide] | 13.7 µM | 39.2 µM
CCc1nc(-c2ccc3c(c2)CC[C@H]3NC(=O)c2cc(C)ncc2F)no1 [Compound 556, (R)-N-(5-(5-ethyl-1,2,4-oxadiazol-3-yl)-2,3-dihydro-1H-inden-1-yl)-5-fluoro-2-methylisonicotinamide] | 1.4 µM | 7.6 µM
CCc1nc(-c2ccc3c(c2)CC[C@H]3NC(=O)c2ccn(C)c(=O)c2)no1 [Compound 558, (R)-N-(5-(5-ethyl-1,2,4-oxadiazol-3-yl)-2,3-dihydro-1H-inden-1-yl)-1-methyl-2-oxo-1,2-dihydropyridine-4-carboxamide] | 2.0 µM | 8.3 µM

These reach a lower IC50. Values come first.

CDMF75 IC15 | IC50 | SMILES
1.2 µM | 5.2 µM | CCc1nc(-c2ccc3c(c2)CC[C@H]3NC(=O)c2cnn(C[C@H](C)O)c2)no1 [Compound 541, N-[(1R)-5-(5-ethyl(1,2,4-oxadiazol-3-yl))indanyl][1-((2S)-2-hydroxypropyl)pyrazol-4-yl]carboxamide]
1.2 µM | 5.1 µM | CCc1nc(-c2ccc3c(c2)CC[C@H]3NC(=O)c2cnn(CC(O)CO)c2)no1 (stereo partly drawn) [Compound 553, N-{(1R)-5-(5-ethyl(1,2,4-oxadiazol-3-yl))indanyl][1-(2,3-dihydroxypropyl)pyrazol-4-yl]carboxamide]
1.1 µM | 4.9 µM | O=C(N[C@@H]1CCc2cc(-c3noc(C(F)F)n3)ccc21)c1cnn(CCO)c1 [Compound 528, (R)-N-(5-(5-(difluoromethyl)-1,2,4-oxadiazol-3-yl)-2,3-dihydro-1H-inden-1-yl)-1-(2-hydroxyethyl)-1H-pyrazole-4-carboxamide]
1.1 µM | 3.5 µM | CCc1nc(-c2ccc3c(c2)OCCC3NC(=O)c2ccnn2C)no1 (centres unmarked) [Compound 536, N-(7-(5-ethyl-1,2,4-oxadiazol-3-yl)chroman-4-yl)-1-methyl-1H-pyrazole-5-carboxamide]
1.0 µM | 3.5 µM | CCOC(=O)c1cc(C(=O)N[C@@H]2CCc3cc(-c4noc(CC)n4)ccc32)ccn1 [Compound 555, Ethyl (R)-4-((5-(5-ethyl-1,2,4-oxadiazol-3-yl)-2,3-dihydro-1H-inden-1-yl)carbamoyl)picolinate]
0.7 µM | 2.9 µM | CCc1nc(-c2ccc3c(c2)CC[C@H]3NC(=O)c2cnn(C[C@H](O)CO)c2)no1 [Compound 540, N-[(1R)-5-(5-ethyl(1,2,4-oxadiazol-3-yl))indanyl][1-((2S)-2,3-dihydroxypropyl)pyrazol-4-yl]carboxamide]
0.7 µM | 2.5 µM | CCc1nc(-c2ccc3c(c2)CCCC3NC(=O)c2ccnn2C)no1 (centres unmarked) [Compound 525, N-(6-(5-ethyl-1,2,4-oxadiazol-3-yl)-1,2,3,4-tetrahydronaphthalen-1-yl)-1-methyl-1H-pyrazole-5-carboxamide]
0.4 µM | 1.8 µM | CCc1nc(-c2ccc3c(c2)OCC[C@H]3NC(=O)c2ccnn2C)no1 [Compound 537, (R)-N-(7-(5-ethyl-1,2,4-oxadiazol-3-yl)chroman-4-yl)-1-methyl-1H-pyrazole-5-carboxamide]
0.4 µM | 1.5 µM | C=Cc1nc(-c2ccc3c(c2)CC[C@H]3NC(=O)c2cnn(C)c2)no1 [Compound 547, N-[(1R)-5-(5-vinyl(1,2,4-oxadiazol-3-yl))indanyl](1-methylpyrazol-4-yl)carboxamide]
0.4 µM | 1.5 µM | CCc1nc(-c2cc(F)c3c(c2)CC[C@H]3NC(=O)c2cnn(C)c2)no1 [Compound 554, (R)-N-(5-(5-ethyl-1,2,4-oxadiazol-3-yl)-7-fluoro-2,3-dihydro-1H-inden-1-yl)-1-methyl-1H-pyrazole-4-carboxamide]
0.4 µM | 1.4 µM | CCc1nc(-c2ccc3c(c2)CC[C@H]3NC(=O)c2ccnc(OC)c2)no1 [Compound 557, (R)-N-(5-(5-ethyl-1,2,4-oxadiazol-3-yl)-2,3-dihydro-1H-inden-1-yl)-2-methoxyisonicotinamide]
0.4 µM | 1.3 µM | CCc1nc(-c2ccc3c(c2)CCC[C@H]3NC(=O)c2ccnn2C)no1 [Compound 526, (R)-N-(6-(5-ethyl-1,2,4-oxadiazol-3-yl)-1,2,3,4-tetrahydronaphthalen-1-yl)-1-methyl-1H-pyrazole-5-carboxamide]
0.3 µM | 1.1 µM | C=Cn1cc(C(=O)N[C@@H]2CCc3cc(-c4noc(CC)n4)ccc32)cn1 [Compound 527, (R)-N-(5-(5-ethyl-1,2,4-oxadiazol-3-yl)-2,3-dihydro-1H-inden-1-yl)-1-vinyl-1H-pyrazole-4-carboxamide]
